Like-named read-outs stand apart in the source and are kept apart here.
What was measured:
[1] = test system: MCF7 (breast cancer); assay: MTT cell viability test, MCF7; format: cell-based, Human; conditions: read-out: IC50, MCF7
Procedure: (§1) Human cell cultures of tumor origin (A549 (lung carcinoma), HCT116 (colon adenocarcinoma), MCF7 (breast cancer), RD (embryonic rhabdomyosarcoma)), and the line of non-transformed cells HEK293 (embryonic kidney) provided by the Laboratory of Tumor Cell Genetics at the N.N. Blokhin Russian Cancer Research Institute, as well as by the Institute of Cytology of the Russian Academy of Sciences, were grown in DMEM (Gibco, Scotland, UK) and MEM (Gibco, Scotland, UK) containing fetal calf serum (10% by volume) (ThermoFisher Scientific, Paisley, UK), L-glutamine (2 mM) (Gibco, Scotland, UK), and penicillin-streptomycin (1% by volume) (PanEco, Moscow, Russia).
(§2) Cellular viability was determined by the MTT test. […] After 24 h of incubation, various concentrations of the test compounds dissolved in DMSO (≤1%) were added to the cell cultures, the solvent was added to the control wells in an equal volume, and then the cells were cultured under the same conditions for 72 h. After the incubation time, MTT (3-(4,5-dimethylthiazol-2-yl)-2,5-diphenyltetrazolium bromide, 5 mg/mL) was added to each well, and the plates were further incubated for 2 h (until a characteristic color appeared). Then, the formazan granules were dissolved in DMSO.
(§3) Using a plate analyzer (Cytation3, BioTech Instruments Inc., USA), the optical density was determined at λ = 530 nm.

[2] = test system: rat heart mitochondria; assay: Mitochondrial swelling; format: biochemical; conditions: rat heart mitochondria 0.5 mg/mL, compounds at 100 μM, Ca2+ 25 μM
Procedure: (§4) Rat heart mitochondria were isolated by differential centrifugation using ice-cold buffer containing KCl (120 mM) and HEPES (20 mM), pH = 7.4, and a trypsin inhibitor. The mitochondrial yield ranged from 5 to 10 mg/mL of protein in the heart sediment. Mitochondria were stored in plastic containers at 4 °C.
Mitochondrial swelling was recorded by the light transmission of the rat heart mitochondrial suspension at λ = 540 nm using a Victor 3 plate analyzer (Perkin Elmer, Germany). The swelling rate was estimated as △A540/min and was calculated as the tangent of the angle of the steepest dependence curve part △A540 versus time.

[3] = test system: A549 (lung carcinoma); assay: MTT cell viability test, A549; format: cell-based, Human; conditions: read-out: IC50, A549
Procedure: as §1, §2, §3

[4] = biological target: T1, cytochrome-c-oxidase complex of the mitochondrial respiratory chain (IV) (Rattus norvegicus, UniProt P00406+P05503+P05505); assay: Respiratory chain complex IV, OCR of isolated rat heart mitochondria (Seahorse); format: biochemical; conditions: isolated rat heart mitochondria 10 μg/well, compounds at 30 μM
T1 construct: Rat heart mitochondria were isolated by differential centrifugation; from tissue; host or cells: rat heart mitochondria
Procedure: as §4
(§5) The effect of the compounds on the functioning of the electron transport chain complexes was carried out using an Agilent Seahorse XF96e Analyzer (Seahorse Bioscience, Billerica, MA, USA) according to their ability to change the rate of oxygen uptake by isolated rat heart mitochondria (10 μg/well). The following modulators were used: activators of complex I of the electron transport chain, NADH dehydrogenase,—glutamate/malate; rotenone (2 μM) (Sigma Aldrich, Saint Louis, USA)—a tissue respiration blocker that stops the transfer of electrons from the reduced form of NADH to cytochrome b, was used as complex I inhibitor; potassium succinate ([…]) (Dia-M, Moscow, Russia), which is a substrate of complex II of the electron transport chain, made it possible to assess mitochondrial respiration mediated by succinate dehydrogenase; complex III (ubiquinol-cytochrome c-oxidoreductase) inhibitor—a blocker of cellular respiration antimycin A (Sigma Aldrich, Saint Louis, USA), as well as ascorbate/TMPD (0.5 μM) (Sigma Aldrich, Saint Louis, USA), allowed us to evaluate the cytochrome-c-oxidase mediated respiration of organelles.

[5] = test system: HEK293 (embryonic kidney); assay: MTT cell viability test, non-transformed HEK293; format: cell-based, Human; conditions: read-out: IC50, HEK293
Procedure: as §1, §2, §3

[6] = test system: RD (embryonic rhabdomyosarcoma); assay: MTT cell viability test, RD; format: cell-based, Human; conditions: 72 h, read-out: IC50, RD
Procedure: as §1, §2, §3

[7] = test system: HCT116 (colon adenocarcinoma); assay: MTT cell viability test, HCT116; format: cell-based, Human; conditions: read-out: IC50, HCT116
Procedure: as §1, §2, §3

[8] = biological target: T2, complex II of the electron transport chain (Rattus norvegicus, UniProt P21913+Q641Z9+Q6PCT8+Q920L2); assay: Respiratory chain complex II, OCR of isolated rat heart mitochondria (Seahorse); format: biochemical; conditions: isolated rat heart mitochondria 10 μg/well, compounds at 30 μM
T2 construct: Rat heart mitochondria were isolated by differential centrifugation; from tissue; host or cells: rat heart mitochondria
Procedure: as §4, §5

[9] = MTT, 72 h, non-transformed cells
[10] = Homo sapiens, MCF7, 72 h, MTT, 72 h
[11] = Homo sapiens, A549, 72 h, MTT, 72 h
[12] = Homo sapiens, HEK293, 72 h, MTT, 72 h, non-transformed cells
[13] = Homo sapiens, HCT-116, 72 h, MTT, 72 h

T1 sequence (P00406 whole entry, other chains not shown): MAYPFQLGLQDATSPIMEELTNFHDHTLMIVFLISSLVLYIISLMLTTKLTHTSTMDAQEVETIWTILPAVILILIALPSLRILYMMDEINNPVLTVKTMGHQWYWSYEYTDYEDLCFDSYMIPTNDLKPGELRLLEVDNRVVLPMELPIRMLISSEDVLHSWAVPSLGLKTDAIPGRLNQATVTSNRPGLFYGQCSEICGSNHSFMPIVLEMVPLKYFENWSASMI
T1 sequence (P05505 whole entry, other chains not shown): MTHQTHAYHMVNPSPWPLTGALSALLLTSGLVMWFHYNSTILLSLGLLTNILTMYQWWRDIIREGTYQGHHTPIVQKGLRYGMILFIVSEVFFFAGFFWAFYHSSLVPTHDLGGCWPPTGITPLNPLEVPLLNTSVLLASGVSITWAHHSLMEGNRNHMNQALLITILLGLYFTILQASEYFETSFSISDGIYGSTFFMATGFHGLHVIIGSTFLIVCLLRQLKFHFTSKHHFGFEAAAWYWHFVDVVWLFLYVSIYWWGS
T2 sequence (Q920L2 35-656): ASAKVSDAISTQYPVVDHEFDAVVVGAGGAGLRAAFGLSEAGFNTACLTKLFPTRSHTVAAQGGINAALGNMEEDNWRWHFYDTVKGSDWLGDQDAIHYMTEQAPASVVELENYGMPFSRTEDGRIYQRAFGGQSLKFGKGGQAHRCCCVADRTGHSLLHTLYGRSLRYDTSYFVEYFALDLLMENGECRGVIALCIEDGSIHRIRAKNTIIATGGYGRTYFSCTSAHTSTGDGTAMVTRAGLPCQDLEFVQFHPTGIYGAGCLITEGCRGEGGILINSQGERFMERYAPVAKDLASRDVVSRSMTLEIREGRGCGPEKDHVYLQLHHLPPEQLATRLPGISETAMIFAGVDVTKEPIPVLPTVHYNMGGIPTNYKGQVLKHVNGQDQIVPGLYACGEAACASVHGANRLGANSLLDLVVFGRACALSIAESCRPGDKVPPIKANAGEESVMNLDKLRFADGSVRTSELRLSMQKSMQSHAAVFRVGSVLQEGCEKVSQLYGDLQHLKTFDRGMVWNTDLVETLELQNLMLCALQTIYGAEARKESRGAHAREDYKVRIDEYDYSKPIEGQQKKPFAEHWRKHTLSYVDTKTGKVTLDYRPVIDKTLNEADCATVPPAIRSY
T2 sequence (P21913 31-282): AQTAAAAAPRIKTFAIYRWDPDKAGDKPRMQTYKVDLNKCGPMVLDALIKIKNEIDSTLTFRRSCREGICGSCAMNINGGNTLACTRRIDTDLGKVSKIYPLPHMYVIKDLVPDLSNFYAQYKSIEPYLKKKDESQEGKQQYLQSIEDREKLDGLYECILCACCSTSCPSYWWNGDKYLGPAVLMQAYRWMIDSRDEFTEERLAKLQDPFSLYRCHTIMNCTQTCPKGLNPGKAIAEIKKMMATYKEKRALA
T2 sequence (Q641Z9 30-169 limits assumed): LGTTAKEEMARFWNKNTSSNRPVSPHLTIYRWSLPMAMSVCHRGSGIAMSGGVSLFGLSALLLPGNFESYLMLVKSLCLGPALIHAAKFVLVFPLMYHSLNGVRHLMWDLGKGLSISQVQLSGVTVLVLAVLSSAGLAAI
T2 sequence (Q6PCT8 57-159): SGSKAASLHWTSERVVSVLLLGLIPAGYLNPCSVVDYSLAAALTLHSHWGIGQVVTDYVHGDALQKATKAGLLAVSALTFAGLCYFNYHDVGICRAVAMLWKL

IC50 ([1]; MTT, 72 h) | IC50 ([3]; MTT, 72 h) | Work of Respiratory Chain Complexes, % Decrease in OCR of Control, IV [4] | IC50 ([7]; MTT, 72 h) | IC50 [1, 10] | IC50 [3, 11] | IC50 [7, 13] | Structure (SMILES) | Mitochondrial Swelling, % of Ca2+-Induced Swelling [2] | IC50 [5, 9] | IC50 ([6]; MTT) | Work of Respiratory Chain Complexes, % Decrease in OCR of Control, II [8] | IC50 [5, 12] | IC50 ([6]; Homo sapiens, MTT) | further results
 |  |  |  |  |  |  | COc1cccc2c1C(=O)c1c(O)c3c(c(O)c1C2=O)C[C@@](O)(C(C)=O)C[C@@H]3O[C@H]1C[C@H](NC[C@H]2C(=O)O[C@@H]3C[C@@]4(C)CCC=C(C)C4=C[C@@H]32)[C@H](O)[C@H](C)O1 |  |  |  |  |  |  | melting point: 152 to 158 °C
2.94 ± 0.02 µM | 0.88 ± 0.11 µM | 40.50 ± 4.05% | 0.25 ± 0.04 µM |  |  |  | COc1cccc2c1C(=O)c1c(O)c3c(c(O)c1C2=O)CC(O)(C(=O)CO)CC3OC1CC(NCC2C(=O)OC3CC4(C)CCCC5(C)OC45CC32)C(O)C(C)O1 (mixture of isomers) [Compound 6a] | 54.22 ± 5.49% | 0.98 ± 0.23 µM | 1.18 ± 0.01 µM |  |  |  | 
1.47 ± 0.04 µM | 0.56 ± 0.01 µM | 41.69 ± 2.13% | 0.26 ± 0.01 µM |  |  |  | COc1cccc2c1C(=O)c1c(O)c3c(c(O)c1C2=O)CC(O)(C(C)=O)CC3OC1CC(NCC2C(=O)OC3CC4(C)CCCC5(C)OC45CC32)C(O)C(C)O1 (mixture of isomers) [Compound 6b] | — (“—” indicates activity absence for compounds (≤10%) in a particular test) | 3.68 ± 0.16 µM | 0.41 ± 0.02 µM | 26.74 ± 4.56% |  |  | 
 |  |  |  | 17.5 ± 0.6 µM | 32 ± 3.24 µM | 11.3 ± 0.27 µM | C=C1CCC[C@]2(C)C[C@H]3OC(=O)C(=C)[C@H]3CC12 (stereo partly shown) [Compound 1, isoalantholactone, reference compound] |  |  |  |  | 74.03 ± 0.51 µM | 10.4 ± 0.79 µM | 
11.1 ± 0.17 µM | 2.21 ± 0.06 µM | 24.52 ± 7.61% | 2.81 ± 0.05 µM |  |  |  | C=C1CCCC2(C)CC3OC(=O)C(CNC4CC(OC5CC(O)(C(=O)CO)Cc6c(O)c7c(c(O)c65)C(=O)c5c(OC)cccc5C7=O)OC(C)C4O)C3CC12 (stereo not shown) [Compound 1a] | — (“—” indicates activity absence for compounds (≤10%) in a particular test) | 19.8 ± 0.42 µM | 2.41 ± 0.03 µM | 27.61 ± 5.71% |  |  | 
 |  |  |  | 13.2 ± 0.93 µM | 36.7 ± 1.43 µM | 10.57 ± 0.04 µM | C=C1C(=O)O[C@@H]2C[C@@]3(C)CCC[C@H](C)C3=C[C@H]12 [Compound 2, alantolactone, reference compound] |  |  |  |  | 36.47 ± 0.07 µM | 5.48 ± 0.2 µM | 
26.8 ± 0.65 µM | 3.29 ± 0.11 µM | 20.45 ± 5.85% | 4.55 ± 0.03 µM |  |  |  | COc1cccc2c1C(=O)c1c(O)c3c(c(O)c1C2=O)C[C@@](O)(C(=O)CO)C[C@@H]3O[C@H]1C[C@H](NC[C@H]2C(=O)O[C@@H]3C[C@@]4(C)CCC[C@H](C)C4=C[C@@H]32)[C@H](O)[C@H](C)O1 [Compound 2a] | 31.51 ± 8.35% | 29.83 ± 0.18 µM | 2.67 ± 0.11 µM | 39.11 ± 4.05% |  |  | 
 |  |  |  | 17.9 ± 0.68 µM | 23.1 ± 1.18 µM | 34.5 ± 3.51 µM | C=C1C(=O)O[C@@H]2C[C@@]3(C)CCCC(C)=C3C[C@H]12 [Compound 3, alloalantholactone, reference compound] |  |  |  |  | 35.9 ± 0.48 µM | 8.82 ± 0.14 µM | 
 |  |  |  | 31.87 ± 0.14 µM | 83.51 ± 0.26 µM | 21.4 ± 0.32 µM | C=C1C(=O)OC2CC3(C)CCCC4(CO4)C3CC12 (stereo not shown) [Compound 4, epoxy-isoalantholactone, reference compound] |  |  |  |  | 106 ± 4.13 µM | 18.6 ± 0.21 µM | 
 |  |  |  | 11.4 ± 0.32 µM | 21.5 ± 0.75 µM | 5.12 ± 0.05 µM | C=C1C(=O)O[C@@H]2C[C@@]3(C)CCC[C@H](C)[C@@]34O[C@H]4[C@H]12 [Compound 5, epoxyalantholactolactone, reference compound] |  |  |  |  | 38.1 ± 1.08 µM | 4.81 ± 0.12 µM | 
1.84 ± 0.06 µM | 1.19 ± 0.02 µM | 21.56 ± 3.66% | 1.3 ± 0.02 µM |  |  |  | COc1cccc2c1C(=O)c1c(O)c3c(c(O)c1C2=O)CC(O)(C(C)=O)CC3OC1CC(NCC2C(=O)OC3CC4(C)CCCC(C)C45OC5C32)C(O)C(C)O1 (stereo not shown) [Compound 5b] | — (“—” indicates activity absence for compounds (≤10%) in a particular test) | 18.19 ± 0.18 µM | 0.8 µM | — (“—” indicates activity absence for compounds (≤10%) in a particular test) |  |  | 
24 ± 0.8 µM | 50.3 ± 1.11 µM |  | 9.75 ± 0.57 µM | 38.6 ± 0.86 µM | 61.7 ± 2.4 µM | 10.8 ± 0.18 µM | C=C1C(=O)OC2CC3(C)CCCC4(C)OC34CC12 (stereo not shown) [Compound 6, epoxyalloalantholactone, reference compound] |  | 18.5 ± 0.2 µM | 8.77 ± 0.01 µM |  | 29.77 ± 0.05 µM | 16.8 ± 0.28 µM | 
 |  |  |  |  |  |  | C=C1C(=O)O[C@@H]2C[C@@]3(C)CCC=C(C)C3=C[C@H]12 [Compound 8, alanthodiene, reference compound] |  |  |  |  |  |  | IC50 ([1]; Homo sapiens, MCF7, 72 h): 4.31 ± 0.02 µM; IC50 ([3]; Homo sapiens, A549, 72 h): 59.9 ± 2.26 µM; IC50 ([5]; Homo sapiens, HEK293, 72 h): 9.07 ± 0.25 µM; IC50 ([6]; Homo sapiens): 4.94 ± 0.09 µM; IC50 ([7]; Homo sapiens, HCT-116, 72 h): 4.99 ± 0.06 µM

Structure (SMILES) | IC50 ([1]; MTT, 72 h) | IC50 ([3]; MTT, 72 h) | Work of Respiratory Chain Complexes, % Decrease in OCR of Control, IV [4] | IC50 ([7]; MTT, 72 h) | IC50 [1, 10] | IC50 [3, 11] | IC50 [7, 13] | Mitochondrial Swelling, % of Ca2+-Induced Swelling [2] | IC50 [5, 9] | IC50 ([6]; MTT) | Work of Respiratory Chain Complexes, % Decrease in OCR of Control, II [8] | IC50 [5, 12] | IC50 ([6]; Homo sapiens, MTT) | further results
C=C1CCCC2(C)CC3OC(=O)C(CNC4CC(OC5CC(O)(C(C)=O)Cc6c(O)c7c(c(O)c65)C(=O)c5c(OC)cccc5C7=O)OC(C)C4O)C3CC12 (stereo not shown) [Compound 1b] | 3.95 ± 0.03 µM | 0.93 ± 0.06 µM | — (“—” indicates activity absence for compounds (≤10%) in a particular test) | 0.28 µM |  |  |  | — (“—” indicates activity absence for compounds (≤10%) in a particular test) | 3.43 ± 0.04 µM | 0.96 ± 0.02 µM | — (“—” indicates activity absence for compounds (≤10%) in a particular test) |  |  | 
COc1cccc2c1C(=O)c1c(O)c3c(c(O)c1C2=O)C[C@@](O)(C(=O)CO)C[C@@H]3O[C@H]1C[C@H](NC[C@H]2C(=O)O[C@@H]3CC4=CCC[C@H](C)[C@@]4(C)[C@@H](O)[C@@H]32)[C@H](O)[C@H](C)O1 [Compound 7a, (8S,10S)-6,8,11-Trihydroxy-10-(((2R,4S,5S,6S)-5-hydroxy-4-((((3S,3aS,4S,4aR,5S,9aR)-4-hydroxy-4a,5-dimethyl-2-oxo-2,3,3a,4,4a,5,6,7,9,9a-decahydronaphtho[2,3-b]furan-3-yl)methyl)amino)-6-methyltetrahydro-2H-pyran-2-yl)oxy)-8-(2-hydroxyacetyl)-1-methoxy-7,8,9,10-tetrahydrotetracene-5,12-dione] |  |  | 38.16 ± 0.84% |  |  |  |  | — (“—” indicates activity absence for compounds (≤10%) in a particular test) |  |  | 33.21 ± 3.84% |  |  | IC50 ([1]; Homo sapiens, MCF7, 72 h): 6.03 ± 0.11 µM; IC50 ([3]; Homo sapiens, A549, 72 h): 5.43 ± 0.16 µM; IC50 ([5]; Homo sapiens, HEK293, 72 h): 10.5 ± 0.88 µM; IC50 ([6]; Homo sapiens): 4.22 ± 0.1 µM; melting point: 170 to 175 °C; IC50 ([7]; Homo sapiens, HCT-116, 72 h): 0.92 µM

From paper PMC8153121, “N-Alkylation of Anthracycline Antibiotics by Natural Sesquiterpene Lactones as a Way to Obtain Antitumor Agents with Reduced Side Effects” (Biomedicines, 2021)
